Data from patent EP0339358B1, “Pyrazolopyridine type mevalonolactones” (NISSAN CHEMICAL INDUSTRIES LTD., priority 1988, dated 1989).

Experiments:
[1] = Test D: Acute toxicity; conditions: mouse, in vivo, po, 1000 mg/kg; orally administered 1,000 mg/kg, 0.5% CMC suspension; mortality after seven days; group of three mice
Protocol: A 0.5% CMC suspension of a test compound was orally administered to ICR male mice (group of three mice). The acute toxicity was determined based on the mortality after seven days. With compound I-5-1, I-5-2, I-5-4, I-5-7, I-5-10, I-5-11, I-5-12, I-5-14 and I-5-15 of the present invention, the mortality was 0% even when they were orally administered in an amount of 1,000 mg/kg, respectively.

[2] = biological target: T1, Hep G2 cells (Homo sapiens, UniProt P04035); test: Test B-1: Inhibition of cholesterol biosynthesis in culture cells ([2-14C]sodium acetate added at 0 hr after addition of compounds); format: cell-based; conditions: HepG2, concentration of 1.0 x 10⁻⁷ mol/ℓ, read-out: Inhibitory activities %
T1 sequence (P04035 1-888): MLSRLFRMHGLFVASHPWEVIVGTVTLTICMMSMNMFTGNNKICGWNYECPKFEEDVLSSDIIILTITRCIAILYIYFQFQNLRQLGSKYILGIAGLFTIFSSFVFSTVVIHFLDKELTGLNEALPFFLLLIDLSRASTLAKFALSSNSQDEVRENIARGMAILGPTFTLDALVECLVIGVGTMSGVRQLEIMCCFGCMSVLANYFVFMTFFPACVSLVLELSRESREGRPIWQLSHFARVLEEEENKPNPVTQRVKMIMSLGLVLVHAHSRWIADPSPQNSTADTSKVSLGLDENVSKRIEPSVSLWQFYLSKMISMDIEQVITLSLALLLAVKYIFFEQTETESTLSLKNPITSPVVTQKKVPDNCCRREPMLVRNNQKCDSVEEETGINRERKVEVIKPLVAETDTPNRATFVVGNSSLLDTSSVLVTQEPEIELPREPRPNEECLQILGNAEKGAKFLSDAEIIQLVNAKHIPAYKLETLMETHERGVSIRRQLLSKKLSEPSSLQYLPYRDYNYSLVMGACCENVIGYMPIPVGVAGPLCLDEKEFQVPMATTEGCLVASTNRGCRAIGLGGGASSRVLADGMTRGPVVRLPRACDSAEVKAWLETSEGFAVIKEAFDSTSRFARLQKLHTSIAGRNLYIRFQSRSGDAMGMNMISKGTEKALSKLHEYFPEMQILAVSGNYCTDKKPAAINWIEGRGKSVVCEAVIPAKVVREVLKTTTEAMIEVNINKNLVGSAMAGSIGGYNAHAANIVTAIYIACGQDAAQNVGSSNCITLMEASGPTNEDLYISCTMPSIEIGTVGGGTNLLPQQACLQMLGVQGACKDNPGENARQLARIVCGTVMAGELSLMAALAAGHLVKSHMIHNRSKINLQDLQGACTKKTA
Protocol: Hep G2 cells at over 5th passage were seeded to 12 well plates and incubated with Dulbecco's modified Eagle (DME) medium containing 10% of fetal bovine serum (FBS) at 37°C, 5% CO₂ until cells were confluent for about 7 days. Cells were exposed to the DME medium contaiing 5% of lipoprotein deficient serum (LpDS) prepared by ultracentrifugation method for over 24 hours. Medium was changed to 0.5 ml of fresh 5% LpDS containing DME before assay and 10 »l of test compound solution dissolved in water or DMSO were added. 0.2 »Ci of [2-¹⁴C]sodium acetate (20 »l) was added at 0 hr(B-1) or 4 hrs(B-2) after addition of compounds. After 4 hrs further incubation with [2-¹⁴C]sodium acetate, medium was removed and cells were washed with phosphate buffered saline (PBS) chilled at 4°C. Cells were scraped with rubber policeman and collected to tubes with PBS and digested with 0.2 ml of 0.5 N KOH at 37°C. Aliquot of digestion was used for protein analysis and remaining was saponified with 1 ml of 15% EtOH-KOH at 75°C for 1 hour. Nonsaponifiable lipids were extracted with petroleum ether and ¹⁴C radioactivity was counted. Counts were revised by cell protein and indicated with DPM/mg protein. Inhibitory activity of compounds was indicated with IC50.

[3] = tested on: cholesterol biosynthesis; test: Test C: Inhibition of cholesterol biosynthesis in vivo; parameters: species or system Male Sprague-Dawley rats; conditions: oral administration of 0.2 mg/kg; relative to the measured value of the control group; serum nonsaponifiable lipids
Protocol: Male Sprague-Dawley rats weighing about 150 g were fed normal Purina chow diet and water ad libitum, and exposed to 12 hours light/12 hours dark lighting pattern (2:00 PM - 2:00 AM dark) prior to use for in vivo inhibition test of cholesterol biosynthesis. Animals were separated groups consisting of five rats as to be average mean body weight in each groups. Test compounds at dosage of 0.02-0.2 mg/kg body weight (0.4 ml/100 g body weight), were dissolved in water or suspended in 0.5% methyl cellulose and orally administered at 2-3 hours before mid-dark (8:00 PM), while cholesterol biosynthesis reaches to maximum in rats. As control, rats were orally administered only water or vehicle. At 90 minutes after sample administration, rats were injected intraperitoneally with 10 »Ci of [2-¹⁴C]sodium acetate at volume of 0.2 ml per one. 2 Hours later, blood samples were obtained and serum were separated immediately. Total lipids were extracted according to the method of Folch et al. and saponified with EtOH-KOH. Nonsaponifiable lipids were extracted with petroleum ether and radio activity incorporated into nonsaponifiable lipids was counted.
Inhibitory activity was indicated as percent decrease of counts in testing groups (DPM/2 ml serum/2 hours) from that in control group.

| inhibition at 0.1 µM [2] [%] | SMILES | mortality at 168 h [1] [%] | percent decrease of counts [3] [%] |
| --- | --- | --- | --- |
|  | CC(C)c1nc2c(c(-c3ccccc3)nn2C)c(-c2ccc(F)cc2)c1/C=C/C(O)CC(O)CC(=O)O (stereo not shown) [Compound I-5-4] | 0 | 53 |
| 55.5 | COc1ccc(-n2nc(C)c3c(-c4ccc(F)cc4)c(/C=C/C(O)CC(O)CC(=O)O)c(C(C)C)nc32)cc1 (stereo not shown) [Compound I-5-13] |  |  |
| 49 | CC(C)(C)n1nc(C2CC2)c2c(-c3ccc(F)cc3)c(/C=C/C(O)CC(O)CC(=O)O)c(C3CC3)nc21 (stereo not shown) [Compound I-5-16] |  |  |
| 78.2 | Cc1nn(C)c2nc(C3CC3)c(/C=C/C(O)CC(O)CC(=O)O)c(-c3ccc(F)cc3)c12 (stereo not shown) [Compound I-5-5] |  | 49 |
|  | Cc1nn(C(C)(C)C)c2nc(C(C)C)c(/C=C/C(O)CC(O)CC(=O)O)c(-c3ccc(F)cc3)c12 (stereo not shown) [Compound I-5-7] | 0 | 52 |
|  | Cc1nn(Cc2ccccc2)c2nc(C(C)C)c(/C=C/C(O)CC(O)CC(=O)O)c(-c3ccc(F)cc3)c12 (stereo not shown) [Compound I-5-10] | 0 |  |
|  | Cc1nn(-c2ccccc2)c2nc(C(C)C)c(/C=C/C(O)CC(O)CC(=O)O)c(-c3ccc(F)cc3)c12 (stereo not shown) [Compound I-5-2] | 0 |  |
|  | Cc1nn(C(C)(C)C)c2nc(C3CC3)c(/C=C/C(O)CC(O)CC(=O)O)c(-c3ccc(F)cc3)c12 (stereo not shown) [Compound I-5-15] | 0 |  |
| 36 | CC(C)(C)n1nc(-c2ccccc2)c2c(-c3ccc(F)cc3)c(/C=C/C(O)CC(O)CC(=O)O)c(C3CC3)nc21 (stereo not shown) [Compound I-5-17] |  |  |
| 55.3 | CC(C)c1nc2c(c(C3CC3)nn2C)c(-c2ccc(F)cc2)c1/C=C/C(O)CC(O)CC(=O)O (stereo not shown) [Compound I-5-9] |  |  |
| 53.3 | CC(C)c1nc2c(cnn2-c2ccccc2)c(-c2ccc(F)cc2)c1/C=C/C(O)CC(O)CC(=O)O (stereo not shown) [Compound I-5-6] |  |  |
|  | Cn1nc(-c2ccccc2)c2c(-c3ccc(F)cc3)c(/C=C/C(O)CC(O)CC(=O)O)c(C3CC3)nc21 (stereo not shown) [Compound I-5-14] | 0 |  |
|  | Cc1nn(C)c2nc(C(C)C)c(/C=C/C(O)CC(O)CC(=O)O)c(-c3ccc(F)cc3)c12 (stereo not shown) [Compound I-5-1, Sodium (E)-7-[4′-(4˝-fluorophenyl)-1′,3′-dimethyl-6′-(1˝-methylethyl)pyrazolo[3,4-b]pyridin-5#MIN#-yl]-3,5-dihydroxyhept-6-enoate] | 0 |  |
| 36.3 | Cc1c2c(-c3ccc(F)cc3)c(/C=C/C(O)CC(O)CC(=O)O)c(C(C)C)nc2nn1-c1ccccc1 (stereo not shown) [Compound I-5-3] |  |  |
|  | CCC(C)C(=O)OC1CC(O)C=C2C=CC(C)C(CCC(O)CC(O)CC(=O)O)C21 (stereo not shown) [CS-514, reference compound] |  | 39 |

| SMILES | inhibition at 0.1 µM [2] [%] | mortality at 168 h [1] [%] | percent decrease of counts [3] [%] |
| --- | --- | --- | --- |
| CC(C)c1nc2c(c(C3CC3)nn2-c2ccccc2)c(-c2ccc(F)cc2)c1/C=C/C(O)CC(O)CC(=O)O (stereo not shown) [Compound I-5-12] | 47.3 | 0 |  |
| CC(C)c1nc2c(c(-c3ccc(Cl)cc3)nn2C)c(-c2ccc(F)cc2)c1/C=C/C(O)CC(O)CC(=O)O (stereo not shown) [Compound I-5-11] | 58.8 | 0 |  |
